Our source for the IC50 values is patent publication US10179790B2 (THOMAS HELLEDAYS STIFTELSE FOR MEDICINSK FORSKNING, priority 2014, dated 2019).

For experiment [1], the target named is MTH1 (Homo sapiens, UniProt P36639). Description: MTH1 enzymatic assay and IC50 value determination (malachite green, 96- and 384-well format). Type of experiment: biochemical. Conditions: hydrolysis of dGTP (100 μM), MTH1 6 nM, pyrophosphatase-coupled malachite green, 15 minutes at 22° C. Here is the method:
MTH1 Enzymatic Assay and IC50 Value Determination
MTH1 catalyzes the hydrolysis of dGTP to dGMP and PPi. By coupling the reaction to pyrophosphatase added in excess PPi is converted to Pi that can be detected by using the malachite green assay reagent. Two different formats were used for IC50 determinations in the enzymatic assay, 96- and 384-well format. 96-Well Method:
Briefly, the compound to be analyzed is diluted in DMSO in a 1:3 dilution series generating 12 different compound concentrations giving a final DMSO concentration of 1% in the assay well. MTH1 diluted in assay buffer (100 mM Tris-acetate, 40 mM NaCl, 10 mM magnesium acetate, 1 mM DTT and 0.005% Tween 20) fortified with E. coli pyrophosphatase (0.2 U/ml) is added to a final concentration of 6 nM. dGTP diluted in assay buffer is added to a final concentration of 100 μM. The reaction mixture is incubated for 15 minutes at 22° C. To 100 μl reaction mixture, 25 μl Malachite green assay regent (0.095% Malachite green in 17% H2SO4, 1.5% Ammonium molybdate, 0.17% Tween 20) is added, followed by incubation with shaking for 15 minutes at 22° C. The absorbance of the assay plate is read at 630 nm using a Hidex Sense Multilabel plate reader. The IC50 value is determined by fitting a dose response curve to the data points using nonlinear regression analysis and the equation Y=Bottom+(Top−Bottom)/(1+10^((Log IC50−X)*HillSlope)), where Y is the read absorbance at 630 nm and X is log [compound].
The compounds to be tested are nano-dispensed, in 11 concentrations, directly in assay plates, with a final DMSO concentration <1%. The protocol and the reaction mixture are the same as for the 96-well assay, with a total reaction volume of 50 μl/well to which 10 μl of Malachite green reagent is added. All additions to the assay plates are made with multidrop.

For experiment [2], the system named is cancer cell. Kind of experiment: Cell viability assay (resazurin). It is filed as cell-based. The settings on record: 72 h; 3 days with compound, resazurin fluorescence; cell line not named. Here is the method:
The utility of the compounds of the present invention can be illustrated, for example, by their activity in vitro in the cancer cell clonogenic and/or viability assay described below. The link between activity in tumor cell clonogenic assay and anti-tumor activity in the clinical setting has been well established in the art (e.g. see ref Silverstini et al Stem Cells 1993, 11(6), 258-35).
Cells are seeded into 96 well plates (1000-3000 cells/well) in DMEM GlutaMAX™ or other suitable media dependent on cell line and incubated overnight in 5% CO2, 37° C. Thereafter cells are treated with compound or vehicle and left in incubator for 3 days until staining with resazurin. Cells are incubated in resazurin (diluted in suitable media) at 37° C. for 2 hours before measuring the fluorescence (Ex544/Em590).
The compounds to be tested are nano-dispensed in 11 concentrations, directly in 384-well cell plates, with a final DMSO concentration <1%. Cells are seeded in cell plates, pre-dispensed with compounds, 50 μl/well (600-1200 cells/well). After 3 days culture in 5% CO2, 37° C., resazurin diluted in PBS is added, 10 μl/well, and cells are incubated 3 hours before measuring fluorescence (Ex544/Em590).

What is called IC50 is the concentration that inhibits the measured activity by half.

As to `CC(=O)Nc1ccc(NCCNc2cc(-c3cccc(C)c3C)nc(N)n2)cc1C` [Example 22, N-{4-[(2-{[2-amino-6-(2,3-dimethylphenyl)pyrimidin-4-yl]amino}ethyl)amino]-2-methylphenyl}acetamide], the IC50 was less than 200 nM in experiment [1] and less than 500 nM in experiment [2].
On the same counts, the results for `Cc1c(Cl)cccc1-c1cc(NCCCOc2ccc(S(C)(=O)=O)cc2)nc(N)n1` [Example 204, 6-(3-chloro-2-methylphenyl)-N4-[3-(4-methanesulfonylphenoxy)propyl]pyrimidine-2,4-diamine] are less than 200 nM and less than 500 nM.
On to `Nc1nc(NCCc2ccc(S(N)(=O)=O)cc2)cc(-c2cc(Cl)cc(Cl)c2Cl)n1` [Example 97, 4-[2-[[2-amino-6-(2,3,5-trichlorophenyl)pyrimidin-4-yl]amino]ethyl]benzenesulfonamide], for which the IC50 in experiment [1] is less than 200 nM; in experiment [2], less than 500 nM.
Regarding `Cc1c(-c2cc(NCCc3ccc(C(N)=O)cc3)nc(N)n2)cc(Cl)c(Cl)c1Cl` [Example 75, 4-(2-{[2-amino-6-(3,4,5-trichloro-2-methylphenyl)pyrimidin-4-yl]amino}ethyl)benzamide], the IC50 was less than 200 nM in experiment [1] and less than 500 nM in experiment [2].
Regarding `Cc1c(Cl)cccc1-c1cc(NCCc2cccc(S(=O)(=O)C(C)C)c2)nc(N)n1` [Example 170], the IC50 in experiment [1] is less than 200 nM; in experiment [2] it was less than 500 nM.
On the same counts, the results for `CS(=O)(=O)c1cccc(NCCNc2cc(-c3cccc(Cl)c3Cl)nc(N)n2)c1` [Example 106, 6-(2,3-dichlorophenyl)-N4-[2-(3-methylsulfonylanilino)ethyl]pyrimidine-2,4-diamine] are less than 200 nM and less than 500 nM.
For `Cc1c(-c2cc(NCCc3ccc(S(N)(=O)=O)cc3)nc(N)n2)cc(Cl)c(Cl)c1Cl` [Example 72, 4-(2-{[2-amino-6-(3,4,5-trichloro-2-methylphenyl)pyrimidin-4-yl]amino}ethyl)benzene-1-sulfonamide] the same measures were less than 200 nM and less than 500 nM.
On the same counts, the results for `Cc1c(Cl)cccc1-c1cc(NCCOc2ccc(S(C)(=O)=O)cn2)nc(N)n1` [Example 214, 6-(3-Chloro-2-methylphenyl)-N4-(2-(5-(methylsulfonyl)pyridin-2-yloxy)ethyl)pyrimidine-2,4-diamine] are less than 200 nM and less than 500 nM.
Take `CCNC(=S)Nc1ccc(CCNc2cc(-c3cccc(Cl)c3C)nc(N)n2)cc1` [Example 117, 1-[4-[2-[[2-amino-6-(3-chloro-2-methyl-phenyl)pyrimidin-4-yl]amino]ethyl]phenyl]-3-ethyl-thiourea]: the figures for the IC50 in experiment [1] and in experiment [2] were less than 200 nM and less than 500 nM, respectively.
Regarding `CCc1ccc(CCNc2cc(-c3cccc(Cl)c3C)nc(N)n2)cc1` [Example 191, 6-(3-chloro-2-methyl-phenyl)-N4-[2-(4-ethylphenyl)ethyl]pyrimidine-2,4-diamine], the IC50 in experiment [1] is less than 200 nM; in experiment [2], less than 500 nM.
For `C#CCN(C)C(=O)c1ccc(CCNc2cc(-c3cccc(Cl)c3C)nc(N)n2)cc1` [Example 211, 4-(2-{[2-amino-6-(3-chloro-2-methylphenyl)pyrimidin-4-yl]amino}ethyl)-N-methyl-N-(prop-2-yn-1-yl)benzamide] the same measures were less than 200 nM and less than 500 nM.
For the compound `Cc1cccc(-c2cc(NCCNc3nccc(C(N)=O)n3)nc(N)n2)c1C` [Example 16, 2-[(2-{[2-amino-6-(2,3-dimethylphenyl)pyrimidin-4-yl]amino}ethyl)amino]pyrimidine-4-carboxamide], the IC50 is less than 200 nM in experiment [1] and less than 500 nM in experiment [2].
On the same counts, the results for `CCOC(=O)NC(=O)Nc1ccc(CCNc2cc(-c3cccc(Cl)c3C)nc(N)n2)cc1` [Example 115, ethyl N-[[4-[2-[[2-amino-6-(3-chloro-2-methyl-phenyl)pyrimidin-4-yl]amino]ethyl]phenyl]carbamoyl]carbamate] are less than 200 nM and less than 500 nM.
For `Cc1c(Cl)cccc1-c1cc(NCCc2cccc(NC(=O)N3CCOCC3)c2)nc(N)n1` [Example 150, N-[3-[2-[[2-amino-6-(3-chloro-2-methyl-phenyl)pyrimidin-4-yl]amino]ethyl]phenyl]morpholine-4-carboxamide] the same measures were less than 200 nM and less than 500 nM.
Take `Cc1nc2ccc(NCCNc3cc(-c4cccc(Cl)c4Cl)nc(N)n3)cc2s1` [Example 39, 6-(2,3-dichlorophenyl)-4-N-{2-[(2-methyl-1,3-benzothiazol-6-yl)amino]ethyl}pyrimidine-2,4-diamine]: the IC50 in experiment [1] is less than 200 nM; in experiment [2] it was less than 500 nM.
As for `Cc1ccc(C)c(-c2cc(NCCc3ccc(S(N)(=O)=O)cc3)nc(N)n2)c1` [Example 70, 4-(2-{[2-amino-6-(2,5-dimethylphenyl)pyrimidin-4-yl]amino}ethyl)benzene-1-sulfonamide], the values for the IC50 in experiment [1] and in experiment [2] were less than 200 nM and less than 500 nM, respectively.
For `COCCOC(=O)Nc1ccc(CCNc2cc(-c3cccc(Cl)c3C)nc(N)n2)cc1` [Example 122, 2-methoxyethyl N-[4-[2-[[2-amino-6-(3-chloro-2-methyl-phenyl)pyrimidin-4-yl]amino]ethyl]phenyl]carbamate], the IC50 was less than 200 nM in experiment [1] and less than 500 nM in experiment [2].
On to `Cc1c(Cl)cccc1-c1cc(NCCCNc2ccc(S(N)(=O)=O)cc2)nc(N)n1` [Example 163, 4-[3-[[2-amino-6-(3-chloro-2-methyl-phenyl)pyrimidin-4-yl]amino]propylamino]benzenesulfonamide], for which the IC50 in experiment [1] is less than 200 nM; in experiment [2], less than 500 nM.
On the same counts, the results for `C#Cc1ccc(CCNc2cc(-c3cccc(Cl)c3C)nc(N)n2)cc1` [Example 212, 6-(3-chloro-2-methylphenyl)-N4-[2-(4-ethynylphenyl)ethyl]pyrimidine-2,4-diamine] are less than 200 nM and less than 500 nM.
On the same counts, the results for `Cc1c(Cl)cccc1-c1cc(NCCc2ccc3c(c2)NC(=O)CO3)nc(N)n1` [Example 48, 6-(2-{[2-amino-6-(3-chloro-2-methylphenyl)pyrimidin-4-yl]amino}ethyl)-3,4-dihydro-2H-1,4-benzoxazin-3-one] are less than 200 nM and less than 500 nM.
On the same counts, the results for `Cc1c(Cl)cccc1-c1cc(NCCc2ccc(NC(=O)OC(C)(C)C)cc2)nc(N)n1` [Example 62, tert-butyl N-[4-(2-{[2-amino-6-(3-chloro-2-methylphenyl)pyrimidin-4-yl]amino}ethyl)phenyl]carbamate] are less than 200 nM and less than 500 nM.
For the compound `Cc1cccc(-c2cc(NCCc3ccc(S(N)(=O)=O)cc3)nc(N)n2)c1Cl` [Example 96, 4-[2-[[2-amino-6-(2-chloro-3-methyl-phenyl)pyrimidin-4-yl]amino]ethyl]benzenesulfonamide], the IC50 in experiment [1] was less than 200 nM; in experiment [2], less than 500 nM.
On the same counts, the results for `Cc1c(Cl)cccc1-c1cc(NCCc2cccc(NC(=O)OC(C)(C)C)c2)nc(N)n1` [Example 83, tert-butyl N-[3-(2-{[2-amino-6-(3-chloro-2-methylphenyl)pyrimidin-4-yl]amino}ethyl)phenyl]carbamate] are less than 200 nM and less than 500 nM.
For `Cc1cccc(-c2cc(NCCNc3ccc(N)nc3)nc(N)n2)c1C` [Example 127, 5-N-(2-{[2-amino-6-(2,3-dimethylphenyl)pyrimidin-4-yl]amino}ethyl)pyridine-2,5-diamine] the same measures were less than 200 nM and less than 500 nM.
As to `Cc1c(Cl)cccc1-c1cc(NCCNc2ccc3c(c2)NC(=O)C(C)(C)O3)nc(N)n1` [Example 56, 6-[(2-{[2-amino-6-(3-chloro-2-methylphenyl)pyrimidin-4-yl]amino}ethyl)amino]-2,2-dimethyl-3,4-dihydro-2H-1,4-benzoxazin-3-one], the figures for the IC50 in experiment [1] and in experiment [2] were less than 200 nM and less than 500 nM, respectively.
